Assay results from US6258790A, “Antisense modulation of integrin α4 expression” (Isis Pharmaceuticals, Inc., priority 1999, dated 2001).

Tests used:
murine integrin α4 = test: Antisense inhibition of murine integrin α4 protein expression in IC-21 macrophage cells (flow cytometry, CD49d-PE); assay type: cell-based, mouse
Experimental: Murine IC-21 macrophage cells (American Type Culture Collection, Manassas, Va.) were used for further study. Additional oligonucleotides were designed to target murine integrin α4. These are shown in Table 10; all 2' MOE nucleotides are shown in bold and remaining positions are 2' deoxy. All 2'-MOE cytosines in these compounds are 5' methylcytosines. IC-21 cells were seeded at 5×10^4 cell/well plates two days before assay. […] Wells were triplicates.
Cells (triplicates) were seeded at 2.5×10^4 cells/well in 24-well plates the day before treatment. Oligonucleotide concentrations were 0.2, 1, 5, 25 and 50 nM in 3 ug/ml LIPOFECTIN. Cells were harvested with 2 mM EDTA for 4 minutes, then 1 ml of 2% BSA, 0.2% azide was added per contents of each well.
IC-21 cells were treated with 0.3, 1, 3, 10 and 30 nM oligonucleotide with 3 ug/ml LIPOFECTIN for 4 hours. Cells were incubated for 24 hours, harvested with trypsin, stained with 2 ug/ml CD49d-PE and rat IgG2B as in previous examples.
These compounds were tested for ability to inhibit integrin α4 protein expression.

murine integrin α4 RNA = test: Dose response effect on integrin α4 RNA levels in IC-21 cells; assay type: cell-based, mouse; conditions: Table 14, duplicate
Experimental: another dose response experiment was done to determine the IC50 of ISIS 16433 for inhibition of integrin α4 RNA. IC-21 cells were tested in duplicate with ISIS 16433 at 6.25, 12.5, 25 or 50 nM with 3 ug/ml LIPOFECTIN.
RNA was purified with Qiagen Qiashredder/RNEASY™ Kit according to manufacturer's directions. Probes were random primed using a prime-a-Gene Kit (Promega, Madison, Wis.).

[1] = system: leukocyte trafficking into the central nervous system of EAE mice; test: Reduction of leukocyte trafficking into the central nervous system of EAE mice (immunostaining of sections); assay type: in vivo, mouse (CSJLF1); conditions: EAE experiment 4
Experimental: The pieces were embedded in O.C.T. tissue freezing medium (Ted Pella Inc., Redding, Calif.) on dry ice and methylbutane. Four-micron frozen sections were cut and air dried overnight. The sections were fixed for three minutes in ice-cold acetone and then placed on a Dako Autostainer (Dako Corporation, Carpinteria, Calif.) and treated in the following steps: 5 minutes in 0.03% H2 O2, 5 minutes in 5% donkey serum diluted in PBS, 45 minutes in appropriately diluted primary antibody, 30 minutes in horseradish peroxidase-labeled donkey anti-rat secondary antibody (Jackson Laboratory, Bar Harbor, Me.). Sections were rinsed between treatments with PBS. All the antibodies used were rat anti-mouse from PharMingen (San Diego, Calif.), except BM-8, which was from Bachem Bioscience Inc. (King of Prussia, Pa.). The immunostaining was developed with DAB (Dako Corporation) and counterstained with hematoxylin.

[2] = system: Mouse experimental autoimmune encephalomyelitis (EAE); test: Mouse experimental autoimmune encephalomyelitis (EAE) model for multiple sclerosis; assay type: in vivo, mouse (CSJLF-1); conditions: scrambled control; for Peak Severity: score 0 to 5
human integrin α4 [3] = test: Integrin α4 protein expression in A375 cells after electroporation of oligonucleotide (flow cytometry); assay type: cell-based
Experimental: A375 cells were treated with ISIS 107245, 107248, 107252, 107255 and 107259 by electroporation at 175 volts, r=1, c=1000, 0.2 ml Opti-MEM, 1×10^6 cells /ml, 2 mm gap electrode using a BTX Electro Cell Manipulator 600 (Genetronics, San Diego Calif.). Oligonucleotide concentrations were 1, 3, 10 and 30 μM. Cells were harvested 24 hours after oligonucleotide treatment and strained with 2 ug/ml CD49d-FITC for flow cytometry as in the previous examples.
ISIS 107248 was compared directly to ISIS 27104 for ability to inhibit integrin α4 expression in A375 melanoma cells. Oligonucleotides were electroporated into cells as in the previous example.

human integrin α4 [4] = test: Inhibition of human integrin α4 protein levels by antisense oligonucleotides (LIPOFECTIN, flow cytometry with CD49d-FITC) in A375 melanoma cells; assay type: cell-based; design: % Inhib.: tested at 200 nM
[5] = system: C8161 human melanoma cells; test: Experimental metastasis assay, C8161 cells injected into athymic nude mice; assay type: in vivo, human melanoma cells in athymic nude mice
Experimental: To evaluate the role of integrin α4 in metastasis, experimental metastasis assays are performed by injecting 1×10^5 C8161 cells into the lateral tail vein of athymic nude mice. C8161 is a human melanoma cell line. […] Four-week-old female athymic nude mice (Harlan Sprague Dawley) are used. Animals are maintained under the guidelines of the NIH. Groups of 4-8 mice each are tested in experimental metastasis assays.
Treatment of C8161 cells with antisense oligonucleotide ISIS 27104, complementary to human integrin α4, is performed in the presence of the cationic lipid, LIPOFECTIN (Gibco/BRL, Gaithersburg, Md.). Cells are seeded in 60 mm tissue culture dishes at 10^6 cells/ml and incubated at 37° C. for 3 days, washed with Opti-MEM (Gibco/BRL) 3 times and 100 μl of Opti-MEM medium is added to each well. 0.5 μM oligonucleotide and 15 μg/ml LIPOFECTIN are mixed at room temperature for 15 minutes. 25 μl of the oligonucleotide-LIPOFECTIN mixture is added to the appropriate dishes and incubated at 37° C. for 4 hours. […] After 4 hours, 500 U/ml TNF-α is added to the appropriate wells and incubated for 18 hours at which time cells are removed from the plates, counted and injected into athymic nude mice. […]
After 4 weeks, mice are sacrificed, organs are fixed in Bouin's fixative and metastatic lesions on lungs are scored with the aid of a dissecting microscope.

[6] = system: Mouse collagen-induced arthritis (CIA); test: Mouse collagen-induced arthritis (CIA) model for rheumatoid arthritis; assay type: in vivo, mouse (DBA/1LacJ); conditions: Table 22; positive control, 5 mg/kg daily IP
Source text: A model for human rheumatoid arthritis has been developed wherein mice are immunized with bovine type II collagen. Anderson et al., J. Immunol. 1991 147, 1189-1193, citing Trentham et al., J. Exp. Med 1977, 146, 857. Swelling and inflammation of the joints follows in approximately 3 weeks, with joint distortion and ankylosis typical of rheumatoid arthritis. This model has been used to study the effects of the antisense oligonucleotide 17044, targeted to mouse integrin α4, on arthritis in mice.
DBA/1LacJ mice were obtained from Jackson Laboratory, Bar Harbor, Me. Female mice aged 6 to 8 weeks were used and assigned to groups, ten mice per group. On day 0 mice were immunized at the base of the tail with 100 ug of bovine type II collagen which was emulsified in Complete Freund's Adjuvant (CFA). On day 7, a second booster dose of collagen was administered by the same route. On day 14 the mice were injected subcutaneously with 100 ug of lipopolysaccharide (LPS). Weights were recorded weekly. Mice were inspected daily for the onset of CIA, which is characterized by erythema and edema. Upon the onset of the disease, paw widths and rear ankle widths of affected and unaffected joints were measured three times a week using a constant tension caliper. In addition, limbs were clinically evaluated and graded 0-4, where 0=normal; 1=one digit swollen; 2=inflammation present in more than one digit; 3=joint distortion with or without inflammation; and 4=ankylosis, detected by joint manipulation. The progression of all measurements was recorded to day 50. At the end of the observation period for each mouse, all paws were removed and examined histologically.
The oligonucleotide, the positive control drug (cyclophosphamide, 5 mg/kg), and the vehicle were administered daily to each mouse intraperitoneally (IP) starting on day -3 and continuing for the duration of the study. Each animal received 10 mg/kg as a bolus daily dose.
In a preliminary study, a single 10 mg/kg daily dose of […] was administered from the time of disease induction to the conclusion of the study 50 days later. Arthritis incidence was reduced from 70 to 30% in the ISIS 17044-treated group.

leukocyte migration = conditions: 3 mg/kg oral; 24 hours after implantation; cited from earlier work
[7] = system: dextran sulfate-mediated colitis in mice; conditions: cited from earlier work
[8] = Table 24, A375 cells, lipofectin, as Example 8

Molecule: 16478 (GCCGACACCCGTTCGTTCGG; phosphorothioate DNA, further chemistry not given here) [compound 16478]
- % Control (integrin α4 protein) (murine integrin α4; Table 11, IC-21 cells, 25 nM, triplicates): 92%
- % of control (murine integrin α4; Table 12, 5 nM, triplicates): 95%
- % Inhib. (murine integrin α4; Table 12, 25 nM, triplicates): 13%
- % of control (murine integrin α4; Table 12, 25 nM, triplicates): 87%
- % Inhib. (murine integrin α4; Table 12, 50 nM, triplicates): 16%
- % of control (murine integrin α4; Table 12, 50 nM, triplicates): 84%
- % of control (murine integrin α4; Table 13, 0.3 nM, 24 hours): 137%
- % of control (murine integrin α4; Table 13, 1 nM, 24 hours): 131%
- % of control (murine integrin α4; Table 13, 3 nM, 24 hours): 127%
- % of control (murine integrin α4; Table 13, 10 nM, 24 hours): 130%
- % of control (murine integrin α4; Table 13, 30 nM, 24 hours): 108%
- Percent inhib. (integrin α4 RNA) (murine integrin α4 RNA; 6.25 nM): 25%
- Percent of control (integrin α4 RNA) (murine integrin α4 RNA; 6.25 nM): 75%
- Percent inhib. (integrin α4 RNA) (murine integrin α4 RNA; 12.5 nM): 40%
- Percent of control (integrin α4 RNA) (murine integrin α4 RNA; 12.5 nM): 60%
- Percent inhib. (integrin α4 RNA) (murine integrin α4 RNA; 25 nM): 76%
- Percent of control (integrin α4 RNA) (murine integrin α4 RNA; 25 nM): 24%
- Percent inhib. (integrin α4 RNA) (murine integrin α4 RNA; 50 nM): 74%
- Percent of control (integrin α4 RNA) (murine integrin α4 RNA; 50 nM): 26%

Molecule: 17614 (GCCGACACCCGTTCGTTCGG; phosphorothioate, 2'-MOE/deoxy, further chemistry not given here) [compound 17614]
- reduction of cellular influx, scrambled control [1]: not effective in reducing cellular influx
- Days to Onset ([2]; EAE Experiment 3, 1 mg/kg): 16.86 days
- Disease Incidence ([2]; EAE Experiment 3, 1 mg/kg): 7/7
- Peak Severity ([2]; EAE Experiment 3, 1 mg/kg): 2.14
- Days to Onset ([2]; EAE Experiment 4, 2 mg/kg SC): 14.14 days
- Disease Incidence ([2]; EAE Experiment 4, 2 mg/kg SC): 7/7
- Peak Severity ([2]; EAE Experiment 4, 2 mg/kg SC): 1.86
- Days to Onset ([2]; EAE Experiment 5, 2 mg/kg SC): 9 days
- Disease Incidence ([2]; EAE Experiment 5, 2 mg/kg SC): 6/7
- Peak Severity ([2]; EAE Experiment 5, 2 mg/kg SC): 1.71

Molecule: 27104 (CCCAAGCCATGCGCTCTCGG; phosphorothioate, 2'-MOE, 5-methyl-C, further chemistry not given here) [compound 27104]
- % Control (human integrin α4 [3]; Table 25, 1 nM as printed, 24 hours): 86.2%
- % Control (human integrin α4 [3]; Table 25, 10 nM, 24 hours): 63.2%
- % Control (human integrin α4 [3]; Table 25, 30 nM, 24 hours): 35.3%
- % Control (human integrin α4 [3]; Table 26, 1 μM): 86.2%
- % Inhib. (human integrin α4 [3]; Table 26, 1 μM): 13.8%
- % Control (human integrin α4 [3]; Table 26, 3 μM): 63.2%
- % Inhib. (human integrin α4 [3]; Table 26, 3 μM): 36.8%
- % Control (human integrin α4 [3]; Table 26, 10 μM): 35.3%
- % Inhib. (human integrin α4 [3]; Table 26, 10 μM): 64.7%
- % Control (human integrin α4 [3]; Table 26, 30 μM): 27.1%
- % Inhib. (human integrin α4 [3]; Table 26, 30 μM): 72.9%
- inhibition (Example 10) (human integrin α4 [4]; Example 10 assay, dose not stated): ≥ 40%
- inhibition (Example 11) (human integrin α4 [4]; Example 11 assay, dose not stated): ≥ 40%
- % Control (human integrin α4 [4]; Table 4, 10 nM): 69%
- % Inhib. (human integrin α4 [4]; Table 4, 10 nM): 31%
- % Control (human integrin α4 [4]; Table 4, 30 nM): 64%
- % Inhib. (human integrin α4 [4]; Table 4, 30 nM): 36%
- % Control (human integrin α4 [4]; Table 4, 100 nM): 49%
- % Inhib. (human integrin α4 [4]; Table 4, 100 nM): 51%
- % Control (human integrin α4 [4]; Table 4, 300 nM): 39%
- % Inhib. (human integrin α4 [4]; Table 4, 300 nM (highest dose)): 61%
- % Control (human integrin α4 [4]; Table 6, 10 nM): 84%
- % Inhib. (human integrin α4 [4]; Table 6, 10 nM): 16%
- % Control (human integrin α4 [4]; Table 6, 30 nM): 82%
- % Inhib. (human integrin α4 [4]; Table 6, 30 nM): 18%
- % Control (human integrin α4 [4]; Table 6, 100 nM): 59%
- % Inhib. (human integrin α4 [4]; Table 6, 100 nM): 41%
- % Control (human integrin α4 [4]; Table 6, 300 nM): 37%
- % Inhib. (human integrin α4 [4]; Table 6, 300 nM (highest dose)): 63%
- % Control (human integrin α4 [4]; [8]): 69%
- % Inhib. (human integrin α4 [4]; [8]): 31%
- enhanced metastatic ability of C8161 from TNF-α treatment ([5]; TNF-α treated cells): eliminates the enhanced metastatic ability
- metastatic potential of C8161 cells ([5]; cells treated with oligonucleotide before injection): decreases the metastatic potential

Molecule: O=P1(N(CCCl)CCCl)NCCCO1 (stereo not drawn) [Cyclophosphamide, cyclophosphamide, reference compound]
- # Paws/Mouse (mean number of affected paws at termination) [6]: 0 ± 0
- Severity (total clinical score/total number of mice in group) [6]: 0 ± 0

Molecule: COc1ccc2c(c1)c(CC(=O)O)c(C)n2C(=O)c1ccc(Cl)cc1 [Indomethacin]
- reduction in mean leukocyte count compared to vehicle control (leukocyte migration): 75-80%

Molecule: TGF-β
- dextran sulfate-mediated colitis [7]: protect against dextran sulfate-mediated colitis in mice
